According to patent US11236068B2, “Fused ring compounds” (Genentech, Inc., priority 2018, dated 2022):

What was measured:
[1] = Whole blood stability assay; assay type: in vitro ADME; settings: fresh whole blood, drug final concentration 1 μM, 37° C., 180 minutes
Procedure: Whole Blood Stability Assay
A whole blood stability assay was performed using fresh blood with a drug final concentration of 1 μM. The drug-blood mixtures were incubated at 37° C. for 180 minutes.

[2] = target: T1, K-Ras G12C (Homo sapiens (Human), UniProt P01116, G12C); experiment: Western blot assay for in cell alkylation of K-Ras G12C (HCC1171 cells); assay type: cell-based; settings: 18 hours at 37° C., 7 point dose response
Procedure: HCC1171 cells were maintained in RPMI1640 supplemented with 10% FBS. Cells were plated in a 96-well plate at 20,000 cells/well and the following day compounds were added to the cells. After 18 hours at 37° C., cells were lysed in RIPA buffer (Sigma RO278) with 0.5% SDS and protease/phosphatase inhibitor cocktail. After through mixing to enable complete lysis, the lysates were cleared by centrifugation before 20 µl was transferred from each well and combined with loading buffer and reducing agent. After heating for 10 minutes at 95° C., […] of each sample was loaded onto a 4-20% Tris-Glycine gel and electrophoresed at 110V for 165 minutes in SDS-PAGE running buffer. Gels were transferred to a nitrocellulose membrane, blocked for 1 hour and stained overnight at 4° C. with primary antibody against K-Ras (polyclonal Proteintech 12063-1-AP). The membrane was then washed thoroughly and counterstained with anti-rabbit IRDye 800CW (LI-COR 926-32211) for one hour at room temperature. After final washes, the membrane was imaged on a LI-COR Odyssey CLx at medium resolution. […] To quantify this affect, the LICOR software was used to draw a rectangle over alkylated and unalkylated bands for each well and measured the total fluorescent intensity (FI) in each of these bands. The following formula was then used to calculate % alkylation: FI(alkylated)/(FI(alkylated)+FI(unalkylated))*100 for each well.
A 7 point dose response curve was used to determine the IC50 for each compound. Cell alkylation data are presented below in Table 3.
Target sequence in this assay (P01116 other isoform, or with tags, fused parts or gaps G12C): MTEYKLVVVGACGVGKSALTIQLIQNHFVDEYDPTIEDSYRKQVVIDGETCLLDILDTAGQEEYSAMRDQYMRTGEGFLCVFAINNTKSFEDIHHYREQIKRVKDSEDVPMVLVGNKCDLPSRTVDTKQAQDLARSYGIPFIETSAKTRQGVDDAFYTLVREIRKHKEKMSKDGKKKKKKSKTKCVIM

[3] = target: T1, K-Ras G12C; experiment: K-Ras G12C, SOS1, Raf RBD HTRF assay for inhibition of GTP exchange; assay type: biochemical; settings: 18 hours incubation with K-Ras G12C at room temperature, SOS1-mediated GTP exchange
Procedure: K-Ras G12C, SOS1, Raf RBD Homogeneous Time Resolved Fluorescence (HTRF) Assay for Inhibition of GTP Exchange
After 18 hours at room temperature, the SOS1 GTP exchange factor (1.67 nM during exchange, 1.25 nM final) was added to initiate nucleotide exchange to GTP (200 μM during exchange, 150 µM final). The level of GTP exchange was assessed by addition of a Ras binding domain derived from C-Raf and the HTRF detection antibodies Tb-anti-FLAG and D2-anti-his (Cis-Bio) at 50 nM, 1 nM and 12.5 nM, respectively. After 2 hours, the ratio of 665 nm to 615 nm emission with 320 nm excitation was measured on an Envision plate reader (Perkin Elmer).
The final reaction volume was 20l in a ProxiPlate-384F Plus (Perkin Elmer), in buffer containing 20 mM HEPES, 150 mM NaCl, 1 mM MgCl2, 0.1% BSA, 0.03% Tween-20 and 1 mM DTT. […] HTRF data are presented below in Table 3.
Target sequence in this assay (P01116 other isoform, or with tags, fused parts or gaps G12C): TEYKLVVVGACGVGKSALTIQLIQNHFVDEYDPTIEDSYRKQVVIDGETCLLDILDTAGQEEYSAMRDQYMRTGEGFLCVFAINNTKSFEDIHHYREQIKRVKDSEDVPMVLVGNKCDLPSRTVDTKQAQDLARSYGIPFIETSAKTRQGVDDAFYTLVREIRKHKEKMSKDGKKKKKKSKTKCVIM

half-life at 1 μM [1] [h] | EC50 [2] [nM] | IC50 [3] [nM] | Compound
2.67 | – | – | C=CC(=O)N1CCN(c2ncnc3c(F)c(-c4nc(N)cc(C)c4C(F)(F)F)c(Cl)cc23)[C@@H](C)C1 [Example 19, 1-((3S)-4-(7-(6-amino-4-methyl-3-(trifluoromethyl)pyridin-2-yl)-6-chloro-8-fluoroquinazolin-4-yl)-3-methylpiperazin-1-yl)prop-2-en-1-one]
– | 7800 | 540 | C=CC(=O)N1CCN(c2ncnc3cc(-c4nc(N)ccc4C(F)(F)F)c(S(C)(=O)=O)cc23)CC1 [Example 28, 1-[4-[7-[6-amino-3-(trifluoromethyl)-2-pyridyl]-6-methylsulfonyl-quinazolin-4-yl]piperazin-1-yl]prop-2-en-1-one]
– | 140 | 32 | C=CC(=O)N1CCN(c2ncnc3cc(-c4nc(N)cc5cccc(F)c45)c(Cl)cc23)CC1 [Example 48, 1-[4-[7-(3-amino-8-fluoroisoquinoline-1-yl)-6-chloroquinazolin-4-yl]piperazin-1-yl]prop-2-en-1-one]
2.67 | 2 | – | C=CC(=O)N1CCN(c2nc(OC[C@@H]3CCCN3C)nc3cc(-c4nc(N)cc(C)c4C(F)(F)F)c(Cl)cc23)[C@@H](C)C1 [Example 61, 1-((S)-4-(7-(6-amino-4-methyl-3-(trifluoromethyl)pyridin-2-yl)-6-chloro-2-(((S)-1-methylpyrrolidin-2-yl)methoxy)quinazolin-4-yl)-3-methylpiperazin-1-yl)prop-2-en-1-one]
0.617 | 7.6 | – | Cc1cc(N)nc(-c2cc3nc(OC[C@@H]4CCCN4C)nc(N4CCN(C(=O)/C=C/C(F)F)C[C@@H]4C)c3cc2Cl)c1C(F)(F)F [Example 65, (E)-1-((S)-4-(7-(6-amino-4-methyl-3-(trifluoromethyl)pyridin-2-yl)-6-chloro-2-(((S)-1-methylpyrrolidin-2-yl)methoxy)quinazolin-4-yl)-3-methylpiperazin-1-yl)-4,4-difluorobut-2-en-1-one]
> 9 | 1 | – | C=CC(=O)N1CCN(c2nc(OC[C@@H]3C[C@@H](F)CN3C)nc3c(F)c(-c4nc(N)cc(C)c4C(F)(F)F)c(Cl)cc23)[C@@H](C)C1 [Example 69, 1-[(3S)-4-[7-[6-amino-4-methyl-3-(trifluoromethyl)-2-pyridyl]-6-chloro-8-fluoro-2-[[(2S,4R)-4-fluoro-1-methyl-pyrrolidin-2-yl]methoxy]quinazolin-4-yl]-3-methyl-piperazin-1-yl]prop-2-en-1-one]
1.02 | 19 | – | C=CC(=O)N1CCN(c2nc(OC[C@@H]3CCCN3C)nc3cc(-c4nc(N)ccc4C(F)(F)F)c(Cl)cc23)CC1 [Example 70, (S)-1-(4-(7-(6-amino-3-(trifluoromethyl)pyridin-2-yl)-6-chloro-2-((1-methylpyrrolidin-2-yl)methoxy)quinazolin-4-yl)piperazin-1-yl)prop-2-en-1-one]
1.52 | 18 | – | C=CC(=O)N1CCN(c2nc(OC[C@@H]3C[C@@H](OCC)CN3C)nc3cc(-c4nc(N)ccc4C(F)(F)F)c(Cl)cc23)CC1 [Example 71, 1-(4-(7-(6-amino-3-(trifluoromethyl)pyridin-2-yl)-6-chloro-2-(((2S,4R)-4-ethoxy-1-methylpyrrolidin-2-yl)methoxy)quinazolin-4-yl)piperazin-1-yl)prop-2-en-1-one]
– | 180 | – | C=CC(=O)N1CCN(c2nc(OC[C@@H]3CCCN3C3COC3)nc3cc(-c4nc(N)ccc4C(F)(F)F)c(Cl)cc23)CC1 [Example 87, 1-[4-[7-[6-amino-3-(trifluoromethyl)-2-pyridyl]-6-chloro-2-[[(2S)-1-(oxetan-3-yl)pyrrolidin-2-yl]methoxy]quinazolin-4-yl]piperazin-1-yl]prop-2-en-1-one]
– | 240 | – | C=CC(=O)N1CCN(c2nc(OCC3(N(C)C)CC3)nc3cc(-c4nc(N)ccc4C(F)(F)F)c(Cl)cc23)CC1 [Example 88, 1-(4-(7-(6-amino-3-(trifluoromethyl)pyridin-2-yl)-6-chloro-2-((1-(dimethylamino)cyclopropyl)methoxy)quinazolin-4-yl)piperazin-1-yl)prop-2-en-1-one]
– | 29 | – | C=CC(=O)N1CCN(c2nc(OC[C@@H]3C[C@@H](F)CN3CCOC)nc3cc(-c4nc(N)ccc4C(F)(F)F)c(Cl)cc23)CC1 [Example 89, 1-[4-[7-[6-amino-3-(trifluoromethyl)-2-pyridyl]-6-chloro-2-[[(2S,4R)-4-fluoro-1-(2-methoxyethyl)pyrrolidin-2-yl]methoxy]quinazolin-4-yl]piperazin-1-yl]prop-2-en-1-one]
– | 55 | – | C=CC(=O)N1CCN(c2nc(OC[C@@H]3C[C@@H](F)[C@H](C)N3C)nc3cc(-c4nc(N)ccc4C(F)(F)F)c(Cl)cc23)CC1 [Example 90, 1-[4-[7-[6-amino-3-(trifluoromethyl)-2-pyridyl]-6-chloro-2-[[(2S,4R,5S)-4-fluoro-1,5-dimethyl-pyrrolidin-2-yl]methoxy]quinazolin-4-yl]piperazin-1-yl]prop-2-en-1-one]
– | 40 | – | C=CC(=O)N1CCN(c2nc(OC[C@@H]3CCCN3CCOC)nc3cc(-c4nc(N)ccc4C(F)(F)F)c(Cl)cc23)CC1 [Example 91, 1-[4-[7-[6-amino-3-(trifluoromethyl)-2-pyridyl]-6-chloro-2-[[(2S)-1-(2-methoxyethyl)pyrrolidin-2-yl]methoxy]quinazolin-4-yl]piperazin-1-yl]prop-2-en-1-one]
3 | 18 | – | C=CC(=O)N1CCN(c2nc(OC[C@@H]3C[C@@H](OC(F)F)CN3C)nc3cc(-c4nc(N)ccc4C(F)(F)F)c(Cl)cc23)CC1 [Example 92, 1-[4-[7-[6-amino-3-(trifluoromethyl)-2-pyridyl]-6-chloro-2-[[(2S,4R)-4-(difluoromethoxy)-1-methyl-pyrrolidin-2-yl]methoxy]quinazolin-4-yl]piperazin-1-yl]prop-2-en-1-one]
– | 130 | – | C=CC(=O)N1CCN(c2nc(OC[C@@H]3CCCN3)nc3c(F)c(-c4nc(N)cc(C)c4C(F)(F)F)c(Cl)cc23)[C@@H](C)C1 [Example 93, 1-((3S)-4-(7-(6-amino-4-methyl-3-(trifluoromethyl)pyridin-2-yl)-6-chloro-8-fluoro-2-(((S)-pyrrolidin-2-yl)methoxy)quinazolin-4-yl)-3-methylpiperazin-1-yl)prop-2-en-1-one]
– | 22 | – | C=CC(=O)N1CCN(c2nc(OCC3(C)C[C@@H](F)CN3C)nc3cc(-c4nc(N)ccc4C(F)(F)F)c(Cl)cc23)CC1 (stereo partly drawn) [Example 96, 1-[4-[7-[6-amino-3-(trifluoromethyl)-2-pyridyl]-6-chloro-2-[[(4R)-4-fluoro-1,2-dimethyl-pyrrolidin-2-yl]methoxy]quinazolin-4-yl]piperazin-1-yl]prop-2-en-1-one]
